#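 Exposure lasted 48 hours, with cells grown in 96-well plates and compounds tested at five concentrations. GI50 = concentration required for 50% inhibition of growth.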 The source made the active and inactive calls. Rule as the data show it: active = GI50 up to about 1.1 µM and inactive = higher.
# Experiments:
# Assay in all cases: DTP human tumour cell line panel, 48 h
# UO-31 = test system: UO-31
# NCI-H460 = test system: NCI-H460
# SR = test system: SR
# KM12 = test system: KM12
# SNB-75 = test system: SNB-75
# OVCAR-3 = test system: OVCAR-3
# HOP-62 = test system: HOP-62
# SNB-19 = test system: SNB-19
# LOX IMVI = test system: LOX IMVI
# HCC 2998 = test system: HCC 2998
# SF-295 = test system: SF-295
# LXFL 529 = test system: LXFL 529
# OVCAR-8 = test system: OVCAR-8
# EKVX = test system: EKVX
# RPMI-8226 = test system: RPMI-8226
# HCT-116 = test system: HCT-116
# SK-MEL-5 = test system: SK-MEL-5
# IGROV-1 = test system: IGROV-1
# A549 = test system: A549
# NCI-H226 = test system: NCI-H226
SMILES,GI50 (UO-31),GI50 (NCI-H460),GI50 (SR),GI50 (KM12),GI50 (SNB-75),GI50 (OVCAR-3),GI50 (HOP-62),GI50 (SNB-19),GI50 (LOX IMVI),GI50 (HCC 2998),GI50 (SF-295),GI50 (LXFL 529),GI50 (OVCAR-8),GI50 (EKVX),GI50 (RPMI-8226),GI50 (HCT-116),GI50 (SK-MEL-5),GI50 (IGROV-1),GI50 (A549),GI50 (NCI-H226)
Cc1cc(C)nc(NS(=O)(=O)c2ccc(Nc3c4ccccc4nc4c(C(=O)Nc5ccc(S(=O)(=O)Nc6cc(C)on6)cc5)ccc(Cl)c34)cc2)n1,20.8 µM (inactive),22 µM (inactive),21.1 µM (inactive),17.3 µM (inactive),31.7 µM (inactive),17 µM (inactive),21.5 µM (inactive),22.4 µM (inactive),22.2 µM (inactive),17.3 µM (inactive),20.7 µM (inactive),18.5 µM (inactive),26.4 µM (inactive),25.5 µM (inactive),20.6 µM (inactive),17.7 µM (inactive),–,–,–,–
CC1=Nn2c(nnc2-c2ccc(N)cc2)NC(C)(C)C1,> 100 µM (inactive),> 100 µM (inactive),–,> 100 µM (inactive),–,> 100 µM (inactive),> 100 µM (inactive),> 100 µM (inactive),> 100 µM (inactive),> 100 µM (inactive),> 100 µM (inactive),> 100 µM (inactive),–,> 100 µM (inactive),> 100 µM (inactive),–,> 100 µM (inactive),> 100 µM (inactive),> 100 µM (inactive),> 100 µM (inactive)
c1ccc2c(c1)cc1ccc3cccc4ccc2c1c34,> 100 µM (inactive),> 100 µM (inactive),> 100 µM (inactive),26.2 µM (inactive),> 100 µM (inactive),> 100 µM (inactive),> 100 µM (inactive),81.1 µM (inactive),> 100 µM (inactive),> 100 µM (inactive),> 100 µM (inactive),–,> 100 µM (inactive),9.04 µM (inactive),> 100 µM (inactive),> 100 µM (inactive),> 100 µM (inactive),> 100 µM (inactive),> 100 µM (inactive),> 100 µM (inactive)
O=C(c1ccccc1)c1c(C(F)(F)F)[n+]([O-])c2ccccc2[n+]1[O-],0.879 µM (active),0.855 µM (active),0.0738 µM (active),0.451 µM (active),1.26 µM (inactive),0.343 µM (active),1.08 µM (active),1.44 µM (inactive),0.291 µM (active),1.25 µM (inactive),1.36 µM (inactive),–,0.543 µM (active),2.17 µM (inactive),0.237 µM (active),0.977 µM (active),1.87 µM (inactive),0.188 µM (active),0.634 µM (active),1.51 µM (inactive)
Oc1c(CN2CCCC2)ccc2cccnc12,3.44 µM (inactive),20.3 µM (inactive),12.2 µM (inactive),24.8 µM (inactive),37.5 µM (inactive),23.9 µM (inactive),13.3 µM (inactive),18.3 µM (inactive),15.5 µM (inactive),> 47.4 µM (inactive),13 µM (inactive),–,11 µM (inactive),12.3 µM (inactive),16.7 µM (inactive),14.1 µM (inactive),12.7 µM (inactive),18.8 µM (inactive),22.6 µM (inactive),21.5 µM (inactive)
N#CC1(CCCCl)CCCCC1,> 100 µM (inactive),> 100 µM (inactive),> 100 µM (inactive),> 100 µM (inactive),32.4 µM (inactive),> 100 µM (inactive),–,> 100 µM (inactive),> 100 µM (inactive),> 100 µM (inactive),> 100 µM (inactive),> 100 µM (inactive),> 100 µM (inactive),> 100 µM (inactive),–,> 100 µM (inactive),> 100 µM (inactive),> 100 µM (inactive),> 100 µM (inactive),–
N#Cc1ncn(-c2ccccc2)c1N,> 100 µM (inactive),> 100 µM (inactive),> 100 µM (inactive),> 100 µM (inactive),> 100 µM (inactive),> 100 µM (inactive),> 100 µM (inactive),> 100 µM (inactive),> 100 µM (inactive),> 100 µM (inactive),> 100 µM (inactive),–,> 100 µM (inactive),> 100 µM (inactive),> 100 µM (inactive),> 100 µM (inactive),> 100 µM (inactive),> 100 µM (inactive),> 100 µM (inactive),> 100 µM (inactive)
